# Measured values taken from US20260242478A1, “ANTIBODIES FOR TARGETING PSMA AND CD28 AND USES THEREOF” (Janux Therapeutics, Inc., priority 2023, published 2026).
# Where no end group is shown, it is not given here.
# Target: anti-CD28 Fab (SEQ ID NOs: 696, 697)
# Assay: anti-CD28 Fab binding to peptides, ELISA
# Details: Table 25; anti-CD28 Fab
# anti-CD28 Fab (SEQ ID NOs: 696, 697), sequence (as listed by the source): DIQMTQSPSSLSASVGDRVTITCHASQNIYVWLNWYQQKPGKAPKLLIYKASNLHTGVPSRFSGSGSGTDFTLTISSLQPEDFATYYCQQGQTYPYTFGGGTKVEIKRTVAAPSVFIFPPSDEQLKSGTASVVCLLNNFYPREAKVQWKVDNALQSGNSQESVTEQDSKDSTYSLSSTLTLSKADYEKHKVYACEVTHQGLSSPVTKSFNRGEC
# anti-CD28 Fab (SEQ ID NOs: 696, 697), sequence (as listed by the source): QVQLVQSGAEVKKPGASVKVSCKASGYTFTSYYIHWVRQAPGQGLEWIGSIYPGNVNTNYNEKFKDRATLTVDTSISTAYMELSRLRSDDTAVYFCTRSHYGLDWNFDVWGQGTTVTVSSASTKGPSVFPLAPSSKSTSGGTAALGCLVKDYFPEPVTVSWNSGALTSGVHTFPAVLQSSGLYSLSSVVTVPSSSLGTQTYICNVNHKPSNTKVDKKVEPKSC
row,Substance,EC50
1,LCAAGASWPWPVCL [Peptide-138],13.1 nM
2,TCSAGATWAWPLCF [Peptide-152],15.6 nM
3,TCSAGAAYPWPLCL [Peptide-145],4.4 nM
4,TCSAGATYTWPKCF [Peptide-141],15.7 nM
5,TCSAGAAYSWPACF [Peptide-146],24.3 nM
6,TCAAGAAWPWPQCL [Peptide-140],2.6 nM
7,LCAAGATYPWPLCL [Peptide-144],5.6 nM
8,TCAAGATWSWPACF [Peptide-142],4.5 nM
9,TCSAGATWPWPICL [Peptide-137],2.1 nM
10,TCSAGATYEWPRCL [Peptide-149],12.8 nM
11,SCSAGAHYPWPQCF [Peptide-148],19 nM
12,TCAAGAHYPWPACL [Peptide-154],4.2 nM
13,TCSAGASYPWPLCL [Peptide-139],5.3 nM
14,TCSAGAHYPWPICL [Peptide-150],10.6 nM
15,TCAAGATYLWPTCL [Peptide-153],20.5 nM
16,LCAAGATYPWPTCL [Peptide-147],25.8 nM
17,SCSAGAAYYWPWCL [Peptide-151],112 nM
18,TCAAGAAWGWPLCF [Peptide-143],5.6 nM

# Same assay, conditions: Table 26; anti-CD28 Fab
row,Substance,EC50
1,YCEGHRPEYILKCL [Peptide-118],65.8 nM
2,YCEGHSQEYLWKCL [Peptide-128],59.4 nM
3,HCSGHHWLQVWKCF [Peptide-130],> 1000 nM
4,YCEGHLPEYLEKCV [Peptide-133],32.5 nM
5,YCEGHAPEYIWKCL [Peptide-123],8.1 nM
6,YCEGHLPEYLGKCL [Peptide-125],12.1 nM
7,YCEGHSSEYIQKCL [Peptide-129],30.5 nM
8,YCEGHSPEYILKCL [Peptide-117],11 nM
9,YCEGHEGIYFWKCL [Peptide-119],128 nM
10,YCEGHSQENIWKCL [Peptide-124],28.1 nM
11,YCWSHSPPFIKKCY [Peptide-131],> 1000 nM
12,YCEGHAPEYIRKCL [Peptide-122],7.8 nM
13,YCEGHAPEYIGKCL [Peptide-136],44.9 nM

# System: anti-CD28 scFv (SEQ ID NO: 9)
# Assay: Kinetic binding of anti-CD28 scFv to peptides, bio-layer interferometry (Octet RED96)
# Details: Table 34; CD28 scFv titrated 100-12.5 nM, 200 nM peptide loaded
# Description: (§1) Briefly, streptavidin biosensors were loaded with biotinylated peptides and baselined in buffer. […] After a short association period, sensors were transferred into buffer and the dissociation of bound anti-CD28 scFv was measured. The timing and steps of the experiment are shown in the accompanying table. Association and dissociation signals were recorded in real time and analyzed using a 1:1 binding model within the instrument software. Analysis using a 1:1 binding model enabled the calculation of the on and off rate constants as well as affinity, KD.
# as §1, with “KD. FIGS. 70A-70F illustrate kinetic binding of anti-CD28 scFv binding to peptides as measured by Octet. FIGS. 70G-70U illustrate kinetic binding of peptides to the anti-CD28 scFv as measured by Octet.” for “KD.”
# anti-CD28 scFv (SEQ ID NO: 9), sequence (as listed by the source): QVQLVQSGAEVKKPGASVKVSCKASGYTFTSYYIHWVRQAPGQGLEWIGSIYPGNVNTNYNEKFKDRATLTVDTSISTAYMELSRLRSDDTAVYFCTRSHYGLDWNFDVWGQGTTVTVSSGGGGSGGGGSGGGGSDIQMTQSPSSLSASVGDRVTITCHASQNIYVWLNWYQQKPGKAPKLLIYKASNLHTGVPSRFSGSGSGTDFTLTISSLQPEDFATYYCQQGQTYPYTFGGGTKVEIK
Substance,kdis,kon
MDWCPRERWVDCFF [Peptide-9],0.0123 s⁻¹,32500 M⁻¹ s⁻¹
GYCHYWGDMVMWCG [Peptide-12],0.00167 s⁻¹,98700 M⁻¹ s⁻¹

# Same assay, conditions: Table 36; anti-CD28 scFv titrated 100-12.5 nM, 200 nM peptide loaded
Substance,Kd,kdis,kon
MDWCPRDLWHECFA [Peptide-38],92.3 nM,0.00277 s⁻¹,30000 M⁻¹ s⁻¹
MDWCPRDMWSECFA [Peptide-43],192 nM,0.0032 s⁻¹,16700 M⁻¹ s⁻¹
MDWCPLYLWNECFN [Peptide-36],68.7 nM,0.00252 s⁻¹,36700 M⁻¹ s⁻¹
MDWCPLHMWHECFS [Peptide-35],127 nM,0.00497 s⁻¹,39000 M⁻¹ s⁻¹
MDWCPRERWVDCFF [Peptide-9],278 nM,0.0115 s⁻¹,41500 M⁻¹ s⁻¹
MDWCPRSLWHECFA [Peptide-47],51.8 nM,0.00201 s⁻¹,38900 M⁻¹ s⁻¹
MDWCPRDMWDECFA [Peptide-42],152 nM,0.00433 s⁻¹,28400 M⁻¹ s⁻¹
MDWCPRDLWDLCFA [Peptide-37],97.8 nM,0.00351 s⁻¹,35900 M⁻¹ s⁻¹
MDWCPRDLWHLCFS [Peptide-39],51.9 nM,0.00265 s⁻¹,51100 M⁻¹ s⁻¹
MDWCPRDLWSECFF [Peptide-40],79.9 nM,0.0031 s⁻¹,38800 M⁻¹ s⁻¹
MDWCPIYLWSECFN [Peptide-33],52.8 nM,0.00153 s⁻¹,29000 M⁻¹ s⁻¹
MHWCPVDLWYLCYN [Peptide-49],21.1 nM,0.00186 s⁻¹,88200 M⁻¹ s⁻¹
MDWCPRFMWDECFN [Peptide-45],134 nM,0.00364 s⁻¹,27100 M⁻¹ s⁻¹
MDWCPIHLWHVCFN [Peptide-32],49.9 nM,0.00295 s⁻¹,59100 M⁻¹ s⁻¹
MDWCPRYLWHVCFA [Peptide-48],21.1 nM,0.00187 s⁻¹,88900 M⁻¹ s⁻¹
MDWCPRDMWSVCFS [Peptide-44],374 nM,0.00812 s⁻¹,21700 M⁻¹ s⁻¹
MDWCPIDLWNECFF [Peptide-31],71.8 nM,0.00369 s⁻¹,51400 M⁻¹ s⁻¹
MDWCPRHMWNYCFA [Peptide-46],35.2 nM,0.00218 s⁻¹,61900 M⁻¹ s⁻¹
MDWCPVHLWSVCFA [Peptide-50],48 nM,0.00443 s⁻¹,92300 M⁻¹ s⁻¹
MNWCPKDIWYLCFN [Peptide-34],88.8 nM,0.00684 s⁻¹,77000 M⁻¹ s⁻¹

# Target: PSMA Fab (SEQ ID NOs: 19, 20) binding to the PSMA antigen
# Assay: Inhibition of PSMA Fab binding to PSMA by peptides, competition ELISA (incl. alanine scanning)
# Parameters: key to Mutation Status: tolerant (T); somewhat tolerant (ST); intolerant (IT)
# Details: Table 39; PSMA Fab fixed at 0.3 nM, peptide 0-100 μM
# Description: PSMA Fab fixed at 0.3 nanomolar (nM) concentration was pre-incubated with 0-100 micromolar (μM) titrated peptides. After a short pre-incubation period, the mixture of titrated peptide with fixed PSMA Fab were added to the PSMA antigen coated plates. After a short incubation on the plates, bound PSMA Fab was detected with a standard horse radish peroxidase conjugated secondary antibody.
# The tables also designate each alanine mutation as tolerant (T), somewhat tolerant (ST), or intolerant (IT) based on changes in binding inhibition ability relative to the non-mutated peptide. Cys-5 and Cys-11 of peptide-179 and peptide-180 were not mutated.
# PSMA Fab (SEQ ID NOs: 19, 20) binding to the PSMA antigen, sequence (as listed by the source): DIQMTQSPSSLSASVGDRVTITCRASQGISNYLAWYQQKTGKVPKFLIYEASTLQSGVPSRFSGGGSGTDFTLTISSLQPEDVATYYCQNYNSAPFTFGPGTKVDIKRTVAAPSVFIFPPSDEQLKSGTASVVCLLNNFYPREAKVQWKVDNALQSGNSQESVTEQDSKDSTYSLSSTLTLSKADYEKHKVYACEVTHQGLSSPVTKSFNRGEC
# PSMA Fab (SEQ ID NOs: 19, 20) binding to the PSMA antigen, sequence (as listed by the source): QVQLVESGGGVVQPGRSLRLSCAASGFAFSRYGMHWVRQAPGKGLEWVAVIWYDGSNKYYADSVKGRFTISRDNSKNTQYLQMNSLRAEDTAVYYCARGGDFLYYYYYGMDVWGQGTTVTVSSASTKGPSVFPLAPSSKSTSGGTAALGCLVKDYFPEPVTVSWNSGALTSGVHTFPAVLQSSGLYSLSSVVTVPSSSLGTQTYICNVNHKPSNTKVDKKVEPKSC
# PSMA Fab (SEQ ID NOs: 19, 20) binding to the PSMA antigen, sequence (Q04609 whole entry partner): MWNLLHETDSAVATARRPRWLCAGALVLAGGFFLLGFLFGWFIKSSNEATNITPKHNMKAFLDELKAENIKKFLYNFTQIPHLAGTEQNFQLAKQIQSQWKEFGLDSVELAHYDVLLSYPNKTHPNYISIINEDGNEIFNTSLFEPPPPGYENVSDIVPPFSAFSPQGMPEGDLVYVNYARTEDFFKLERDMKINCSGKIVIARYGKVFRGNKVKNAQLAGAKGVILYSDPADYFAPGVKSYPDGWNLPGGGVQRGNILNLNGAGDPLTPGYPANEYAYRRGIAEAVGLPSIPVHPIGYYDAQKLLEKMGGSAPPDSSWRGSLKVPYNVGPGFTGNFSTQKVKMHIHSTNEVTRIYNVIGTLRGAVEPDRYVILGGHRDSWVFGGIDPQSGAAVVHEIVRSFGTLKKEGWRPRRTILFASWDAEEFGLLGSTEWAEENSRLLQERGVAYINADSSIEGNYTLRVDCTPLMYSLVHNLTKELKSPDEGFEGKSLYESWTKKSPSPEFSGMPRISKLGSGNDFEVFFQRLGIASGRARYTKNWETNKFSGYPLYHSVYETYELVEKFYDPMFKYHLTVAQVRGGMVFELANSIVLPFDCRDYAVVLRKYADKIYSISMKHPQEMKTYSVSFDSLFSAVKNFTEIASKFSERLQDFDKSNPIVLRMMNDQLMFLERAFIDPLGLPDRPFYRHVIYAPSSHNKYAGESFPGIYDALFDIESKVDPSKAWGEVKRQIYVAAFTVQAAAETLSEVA
row,Substance,IC50
1,HCLWHESSGRVLCF [Peptide-192],> 100000 nM
2,FVPCIPSHWLCPIW [Peptide-191],> 100000 nM
3,LCQWYPKFHWMDCD [Peptide-210],> 100000 nM
4,WCWVQDDRRHVVCG [Peptide-201],> 100000 nM
5,HCEFHDYQSCDVLY [Peptide-211],> 100000 nM

# Same assay, conditions: Table 40; alanine scanning of Peptide-179, change in binding inhibition relative to non-mutated peptide
row,Substance,Mutation Status
1,LMKWCTPRWACAAE [Peptide-249],IT
2,LMKWCAPRWMCAAE [Peptide-245],ST
3,LAKWCTPRWMCAAE [Peptide-242],T
4,LMKWCTPAWMCAAE [Peptide-247],T
5,AMKWCTPRWMCAAE [Peptide-241],T
6,LMKACTPRWMCAAE [Peptide-244],ST
7,LMKWCTARWMCAAE [Peptide-246],IT

# Same assay, conditions: Table 40; competition binding ELISA, alanine scanning sequences of Peptide-179
row,Substance,IC50
1,LMKWCTPRWACAAE [Peptide-249],> 100000 nM
2,LMKWCTARWMCAAE [Peptide-246],> 100000 nM

# Same assay, conditions: Table 41; alanine scanning of Peptide-180, change in binding inhibition relative to non-mutated peptide
row,Substance,Mutation Status
1,IAVLCQPNAMCAGF [Peptide-257],IT
2,AAVLCQPNWMCAGF [Peptide-251],T
3,IAVLCQPNWMCAAF [Peptide-259],ST
4,IAVLCQANWMCAGF [Peptide-255],IT
5,IAALCQPNWMCAGF [Peptide-252],T
6,IAVLCAPNWMCAGF [Peptide-254],T
7,IAVLCQPNWMCAGA [Peptide-260],ST

# Same assay, conditions: Table 41; competition binding ELISA, alanine scanning sequences of Peptide-180
row,Substance,IC50
1,IAVLCQPNAMCAGF [Peptide-257],> 100000 nM
2,IAVLCQANWMCAGF [Peptide-255],> 100000 nM

# Same assay, conditions: Table 42; SAR guided optimization phage library of peptide-180
row,Substance,IC50
1,VEVKCFPLWFCVGL [Peptide-275],> 100000 nM

# Same assay, conditions: Table 43; SAR guided optimization phage library of peptide-179
row,Substance,IC50
1,EPKWCVPRGLCNYD [Peptide-240],> 100000 nM

# System: PSMA Fab
# Assay: Phage binding ELISA, PSMA Fab, with or without PSMA antigen (peptide-179 and peptide-180 libraries)
# Details: peptide-180 library clonal phage; background (no Fab)
# Description: (§2) Once the phage optimization libraries were completed, phage libraries were bio-panned using PSMA Fab loaded beads. Multiple rounds of panning were performed where bacteriophage was allowed to bind to PSMA Fab loaded beads. washed. eluted, and amplified. After panning, phage infected bacteria were plated out and colonies picked into 96 well blocks. Clonal phage was then amplified and separated from bacterial cells via centrifugation. Phage containing supemnatants were tested in binding ELISAs against PSMA Fab coated plates in the presence or absence of saturating concentrations of PSMA antigen. Phage able to bind PSMA Fab were selected for sequence analysis if the binding signal was reduced in the presence of PSMA.
# Clonal phage were harvested as crude supernatants and screened via standard ELISAs. Briefly, biotinylated PSMA Fab was captured on neutravidin coated plates. Prior to the addition of clonal phage. wells were incubated with blocking buffer and PSMA antigen or blocking buffer alone. Without washing or aspirating, clonal phage supernatants were then added to the wells and incubated for a short time. Wells were then washed followed by detection of bound phage using a horse radish conjugated anti-M13 antibody. Clonal phage of interest were then sent for sequence analysis.
# as §2, with “beads, washed,” for “beads. washed.”, “supernatants” for “supemnatants”
row,Substance,Phage binding ELISA Background signal
1,Phage-2787 (LWKSCTPEWMCAEW),0.0888
2,Phage-2843 (MLPICKPDWMCAGF; not fully specified; cysteine pairing not given here),0.0724
3,Phage-2848 (VMTVCKPAWMCTGF; not fully specified; cysteine pairing not given here),0.1338
4,Phage-2816 (GDKWCKPSWMCDFF),0.0602
5,Phage-2815 (IDKWCVPAWMCSPA),0.0608
